The values below come from ChEMBL document CHEMBL1154378, “Histamine H3 and H4 receptor affinity of branched 3-(1H-imidazol-4-yl)propyl N-alkylcarbamates” (Bioorg Med Chem Lett, 2009).

As usually defined, the Ki is the equilibrium dissociation constant of an inhibitor or competing ligand from its target. Read a high Ki as weaker binding.

Experiment [1] deals with T1, Histamine H4 receptor (Homo sapiens, UniProt Q9H3N8). Kind of experiment: Displacement of [3H]histamine from human histamine H4 receptor expressed in SF9 cells coexpressing Galphai2, Gbeta1gamma2. In general terms: Loss of bound radioactivity is the signal in a displacement assay; it reports binding, not function.
Experiment [2] addresses T2, Histamine H3 receptor (Homo sapiens, UniProt Q9Y5N1). As to the kind of experiment: Displacement of [125I]iodoproxyfan from human histamine H3 receptor expressed in CHO-K1 cells.
A further experiment is filed under the species Homo sapiens. As to the kind of experiment: Selectivity, ratio of Ki for human histaminee H4 receptor to Ki for human histamine H3 receptor.
Experiment [3] concerns the target T2, Histamine H3 receptor. As to the kind of experiment: Displacement of […]iodoproxyfan from human histamine H3 receptor expressed in HEK293 cells. In kind it is cell-based.
Experiment [4] deals with Histamine H3 receptor (Rattus norvegicus, UniProt Q9QYN8). As to the kind of experiment: Displacement of [3H]histamine from histamine H3 receptor in rat cerebral cortex. In kind it is tissue-based.
Experiment [5] deals with T1, Histamine H4 receptor. Kind of experiment: Displacement of [3H]histamine from human histamine H4 receptor expressed in HEK293 cells. In kind it is cell-based.

T1 sequence (Q9H3N8 whole entry): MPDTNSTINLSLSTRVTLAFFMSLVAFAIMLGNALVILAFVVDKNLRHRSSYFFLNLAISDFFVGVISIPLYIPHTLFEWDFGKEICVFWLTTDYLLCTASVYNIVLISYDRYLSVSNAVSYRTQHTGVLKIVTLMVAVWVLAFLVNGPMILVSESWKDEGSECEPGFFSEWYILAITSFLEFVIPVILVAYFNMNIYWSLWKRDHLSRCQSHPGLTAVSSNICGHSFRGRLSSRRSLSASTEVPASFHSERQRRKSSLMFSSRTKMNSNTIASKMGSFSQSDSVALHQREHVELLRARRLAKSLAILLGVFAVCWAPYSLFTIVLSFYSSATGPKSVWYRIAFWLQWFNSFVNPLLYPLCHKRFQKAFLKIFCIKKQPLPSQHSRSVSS
T2 sequence (Q9Y5N1 whole entry): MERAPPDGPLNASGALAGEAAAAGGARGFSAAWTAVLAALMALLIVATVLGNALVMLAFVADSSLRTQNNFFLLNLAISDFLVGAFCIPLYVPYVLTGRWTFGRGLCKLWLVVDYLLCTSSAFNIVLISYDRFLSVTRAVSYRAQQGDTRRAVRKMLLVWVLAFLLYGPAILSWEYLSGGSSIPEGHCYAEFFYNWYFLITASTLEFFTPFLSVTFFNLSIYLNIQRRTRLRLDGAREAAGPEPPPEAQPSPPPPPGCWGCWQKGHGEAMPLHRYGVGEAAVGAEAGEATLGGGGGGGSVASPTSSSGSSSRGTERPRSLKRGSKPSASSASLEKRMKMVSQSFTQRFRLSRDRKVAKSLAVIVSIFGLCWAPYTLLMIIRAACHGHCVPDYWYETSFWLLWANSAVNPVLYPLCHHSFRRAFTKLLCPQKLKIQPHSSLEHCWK
Sequence of Histamine H3 receptor (Rattus norvegicus, UniProt Q9QYN8) (Q9QYN8 whole entry): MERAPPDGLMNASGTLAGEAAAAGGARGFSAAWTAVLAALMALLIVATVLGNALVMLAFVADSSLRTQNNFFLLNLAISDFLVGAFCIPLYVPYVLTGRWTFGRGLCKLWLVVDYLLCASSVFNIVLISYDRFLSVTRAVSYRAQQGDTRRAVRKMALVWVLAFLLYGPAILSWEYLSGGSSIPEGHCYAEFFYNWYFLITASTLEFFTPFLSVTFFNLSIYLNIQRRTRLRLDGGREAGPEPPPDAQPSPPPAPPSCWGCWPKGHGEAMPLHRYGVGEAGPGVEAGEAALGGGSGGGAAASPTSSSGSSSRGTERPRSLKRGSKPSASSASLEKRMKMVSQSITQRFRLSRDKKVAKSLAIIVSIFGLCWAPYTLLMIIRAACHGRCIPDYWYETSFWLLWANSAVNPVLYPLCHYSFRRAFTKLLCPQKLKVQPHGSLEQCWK

On to `CC[C@H](C)CNC(=O)OCCCc1c[nH]cn1`, for which the figures for the Ki at Histamine H4 receptor [1] and at Histamine H3 receptor [2] were 118 nM and 4.7 nM, respectively. In addition, the Ratio Ki in the experiment listed under Homo sapiens came to 25.
As to `CCCCC[C@H](C)NC(=O)OCCCc1cnc[nH]1`, the Ki on Histamine H4 receptor [1] was found to be 1460 nM; at Histamine H3 receptor [2], 74 nM.
On the same counts, the results for `CCCC[C@@H](C)NC(=O)OCCCc1cnc[nH]1` are 426 nM and 19 nM.
On Histamine H3 receptor [2], `CCCC[C@H](C)NC(=O)OCCCc1cnc[nH]1` yielded a Ki of 42 nM.
Consider `CCCCCC[C@@H](C)NC(=O)OCCCc1c[nH]cn1`, for which the Ki on Histamine H3 receptor [3] is 28 nM.
Take `CCCCC[C@@H](C)NC(=O)OCCCc1cnc[nH]1`: the Ki turned out to be 636 nM at Histamine H4 receptor [1] and 41 nM at Histamine H3 receptor [2].
Turning to `CC[C@@H](C)NC(=O)OCCCc1c[nH]cn1`, the Ki turned out to be 290 nM at Histamine H4 receptor [1] and 12 nM on Histamine H3 receptor [2]. In addition, in the experiment filed under Homo sapiens, the Ratio Ki is 24.
On to `CC[C@H](C)NC(=O)OCCCc1c[nH]cn1`, for which the Ki at Histamine H3 receptor [2] came out at 31 nM.
The same measure, in the same setting: the same measure for `CCC[C@@H](C)NC(=O)OCCCc1cnc[nH]1`: 15 nM.
`CCCCCC[C@H](C)NC(=O)OCCCc1c[nH]cn1` had a Ki at Histamine H3 receptor [3] of 43 nM.
Take `CCCCC[C@@H](C)NC(=O)OCCCc1c[nH]cn1`: in the experiment filed under Homo sapiens, the Ratio Ki amounted to 16.
On to `CCCCC[C@H](C)NC(=O)OCCCc1c[nH]cn1`, for which the Ratio Ki in the experiment listed under Homo sapiens was found to be 20.
The same measure, in the same setting: the same measure for `CCCC[C@@H](C)NC(=O)OCCCc1c[nH]cn1`: 22.
Consider `CCC(C)NC(=O)OCCCc1c[nH]cn1` (racemic), for which the Ki at Histamine H3 receptor [2] was found to be 49 nM.
As to `CCCCCC(C)NC(=O)OCCCc1c[nH]cn1` (racemic), the Ki at Histamine H3 receptor [2] was 52 nM.
For `CCCCC(C)NC(=O)OCCCc1c[nH]cn1` (racemic), the values for the Ki at Histamine H4 receptor [1] and on Histamine H3 receptor [2] were 695 nM and 29 nM, respectively. The Ratio Ki in the experiment listed under Homo sapiens is 24.
Regarding `CC(C)CCCC(C)NC(=O)OCCCc1cnc[nH]1` (racemic), the Ki worked out at 75 nM on Histamine H3 receptor [2] and 22 nM at Histamine H3 receptor [4].
With `CCCCC(CC)CNC(=O)OCCCc1cnc[nH]1` (racemic), the Ki on Histamine H4 receptor [1] was 779 nM; on Histamine H3 receptor [2], 37 nM.
With `CCCCCCC(C)NC(=O)OCCCc1c[nH]cn1` (racemic), affinity at Histamine H3 receptor [2] was put at a Ki of 91 nM.
Still for that read-out and setting: the same measure for `CCCC(C)NC(=O)OCCCc1c[nH]cn1` (racemic): 21 nM.
Turning to `CCCC(C)CNC(=O)OCCCc1c[nH]cn1` (racemic), the figures for the Ki on Histamine H4 receptor [1] and at Histamine H3 receptor [2] were 162 nM and 8.3 nM, respectively. In addition, the Ratio Ki in the experiment filed under Homo sapiens amounted to 20.
On the same counts, the results for `CCC(C)CCNC(=O)OCCCc1c[nH]cn1` (racemic) are 123 nM, 13 nM and 9.
`CC(C)CCC(C)NC(=O)OCCCc1cnc[nH]1` (racemic) yielded a Ki at Histamine H3 receptor [2] of 30 nM.
Regarding `CCCCC(CC)CNC(=O)OCCCc1c[nH]cn1` (racemic), the Ratio Ki in the experiment filed under Homo sapiens came to 21.
With `O=C(c1ccc(OCCCc2cnc[nH]2)cc1)C1CC1` [CIPROXIFAN], on Histamine H4 receptor [5], the Ki was determined as 612 nM.
At Histamine H4 receptor [5], `NC(=NCc1ccc(Cl)cc1)SCCCc1cnc[nH]1` [CLOBENPROPIT] displayed a Ki of 4.3 nM.
